Structures are written as SMILES.

This data set in a line: Human HepG2 cell viability assay in 384 well format. The class given is toxicity, cell-based. More on the design: dose 125 nL, time 70.5 hour; concentration not given beside the values. To be noted: HepG2 cells, read-out: Inhibition.
In the case of `Cn1cccc1C(=O)N1CCC2(CCCN2c2ncccn2)CC1`, the cytotoxicity at 70.5 h was -13.8%.
As to `CSCCC(=O)N1CCCN(Cc2cnn(C(C)C)c2)CC1`, the cytotoxicity at 70.5 h was 34.5%.
As to `OCCN(Cc1cccnc1)c1ccc(Cl)cn1`, the cytotoxicity at 70.5 h was -2.8%.
For the compound `Cc1n[nH]c(C)c1Sc1ccccc1NC(=O)N1CCOCC1`, the cytotoxicity at 70.5 h was -2.37%.
On to `CCn1cnnc1C1CCN(C(=O)COc2ccc(Cl)cc2)CC1`, for which the cytotoxicity at 70.5 h is -9.99%.
With `O=c1[nH]c2ccccc2cc1CN(Cc1ccccn1)CC1CCCO1` (stereo unspecified), the cytotoxicity at 70.5 h is -4.2%.
With `N#CC1(NC(=O)COc2cc(Cl)cc(Cl)c2)CCSC1` (stereo unspecified), the cytotoxicity at 70.5 h is -14.6%.
The same measure for `Cc1nc(CCNC2CCN(Cc3ccccc3)C2)sc1C` (stereo unspecified): -4.05%; for `COc1ccccc1C1CNC(=O)c2nc(-c3c(C)n[nH]c3C)[nH]c2C1` (stereo unspecified): -4.74%; for `CC(Cn1cncn1)NCc1n[nH]c2c1CCCCC2` (stereo unspecified): -10.2%.
For `Cn1cc(CN2CCC3(CCCN3Cc3cccnc3)CC2)cn1`, the cytotoxicity at 70.5 h is -3.83%.
As for `FC(F)(F)c1cccc(OC2CCN(Cc3ccccn3)CC2)c1`, the cytotoxicity at 70.5 h is -0.484%.
Under `CC(O)CN1CCN(Cc2cccc(C(=O)N(C)C)c2)CC1` (stereo unspecified) stands -2.45%; under `COC(=O)[C@@H]1Cc2ncn(C)c2CN1S(=O)(=O)c1ccc(Cl)cc1`, 10.2%; under `CCN(Cc1ccccc1)C(=O)CN1CCOC(Cn2cncn2)C1` (stereo unspecified), 5.38%.
Turning to `CSc1nc(N)c2c(n1)N=C1COC(O)=C1C2c1cccc(O)c1` (stereo unspecified), the cytotoxicity at 70.5 h was determined as 0.964%.
Turning to `CCc1nn(C)c2[nH]nc(NC(=O)c3cccnc3OCC(C)C)c12`, the cytotoxicity at 70.5 h is -90.4%.
For the compound `Cc1nc(C)n(CC2CCCN(CCC(=O)N3CCOCC3)C2)n1` (stereo unspecified), the cytotoxicity at 70.5 h was -4.61%.
Under `Cc1cc(C)cc(OCC(=O)N2CCCC2)c1` stands -21.3%.
With `CC(c1ccc(C(=O)NCCc2nc(N)cc(O)n2)o1)N1CCCCC1` (stereo unspecified), the cytotoxicity at 70.5 h was -3.9%.
Consider `Cc1ccc(CN(C)C(=O)CN2CCCC2Cn2cncn2)cc1` (stereo unspecified), for which the cytotoxicity at 70.5 h was -3.7%.
Consider `Cc1csc(N2CCCN(C(=O)Cc3ccc(C)s3)CC2)n1`, for which the cytotoxicity at 70.5 h stood at 16.1%.
Take `CCn1cc(Cn2cc(Cl)c(N)n2)c(C)n1`: the cytotoxicity at 70.5 h is -2.35%.
Regarding `O=C(Nc1cc(C(F)(F)F)c[nH]c1=O)C1CCCCN1` (stereo unspecified), the cytotoxicity at 70.5 h is -8.9%.
On to `CC(C)NC(=O)C1(CC2CC(c3ccc(F)cc3)=NO2)CCNCC1` (stereo unspecified), for which the cytotoxicity at 70.5 h worked out at 24.3%.
With `CC(=O)N1CCN(C(=O)C[C@@H]2C[C@@H](C(C)C)[C@H](CC#N)C=C2C)CC1`, the cytotoxicity at 70.5 h is 0.119%.
Regarding `Cc1ccc2cc(C(=O)NCCn3nc4ccccn4c3=O)[nH]c2c1`, the cytotoxicity at 70.5 h stood at 8.99%.
For `c1c[nH]c2nc(C3CCNC3)nc-2c1` (stereo unspecified), the cytotoxicity at 70.5 h is -17.5%.
Under `COC(=O)C(c1cc(F)ccc1F)N(C)C(=O)c1cnccn1` (stereo unspecified) stands 21.6%.
On to `Cc1c[nH]c(CN2CC[C@@]3(O)CCN(C(=O)C4CCC4)C[C@H]3C2)n1`, for which the cytotoxicity at 70.5 h was -1.74%.
Consider `COCCNC(=O)C1CN(Cc2ccncc2)Cc2ccnn2C1` (stereo unspecified), for which the cytotoxicity at 70.5 h was -14.1%.
On to `Cc1cccc(N2CC[C@@H]3CN(C(=O)c4ccco4)CCO[C@@H]3C2)n1`, for which the cytotoxicity at 70.5 h was -13.8%.
With `O=C1CC(NS(=O)(=O)c2cccc(F)c2)CN1` (stereo unspecified), the cytotoxicity at 70.5 h stood at 5.76%.
For `O=C(c1ccncc1)N1CCOC2(CCCN(c3nncs3)C2)C1` (stereo unspecified), the cytotoxicity at 70.5 h is -0.0919%.
As for `C/C=C(\C)CN1C[C@H](NC(=O)c2cnc(O)cn2)C[C@H]1C(=O)NCC`, the cytotoxicity at 70.5 h is -9.9%.
As to `Cc1cccc(NC(=O)c2cncc(C3CCNCC3)n2)n1`, the cytotoxicity at 70.5 h is -5.87%.
For the compound `Cn1cc(CN2CCCC3(CCCN3S(C)(=O)=O)C2)cn1` (stereo unspecified), the cytotoxicity at 70.5 h is -16.8%.
On to `CN(c1ncc(S(N)(=O)=O)s1)C1CCc2ccccc2C1` (stereo unspecified), for which the cytotoxicity at 70.5 h is -10%.
With `Cc1ccc(CN2CCN(c3ncnc4[nH]cnc34)CC2CCO)cc1` (stereo unspecified), the cytotoxicity at 70.5 h was found to be 4.25%.
Consider `COCC(=O)N1Cc2c(-c3cccc(C)c3)nc(N)nc2C1C` (stereo unspecified), for which the cytotoxicity at 70.5 h was -9.82%.
For the compound `CC(C)n1cc(CN2CCCN(C(=O)CN3CCCC3=O)CC2)cn1`, the cytotoxicity at 70.5 h worked out at 58%.
For `CC(C)n1cnc2ccc(NC(=O)CCCn3cccn3)cc2c1=O`, the cytotoxicity at 70.5 h stood at 21.7%.
As for `COc1ccccc1CN1CCC(c2nccc(C)n2)C1` (stereo unspecified), the cytotoxicity at 70.5 h stood at 27.1%.
For `Cc1ccc(CN2CCC(NC(=O)c3scnc3C)CC2)cc1`, the cytotoxicity at 70.5 h is 3.8%.
`Cc1cc(N(C)CCN(C)C2CCCC2)n2nc(C)cc2n1`: the cytotoxicity at 70.5 h was -1.99%.
As to `CC(=O)N1CCN(c2cc(CCNC(=O)C(C)C)nc(C3CC3)n2)CC1`, the cytotoxicity at 70.5 h is -7.84%.
For `CCn1cc(CN2CCN(CC(O)c3ccc(C)cc3C)CC2)cn1` (stereo unspecified), the cytotoxicity at 70.5 h was -4.8%.
As to `Cc1nnsc1C(=O)N1CCC2(CC1)c1nc[nH]c1CCN2CC(C)C`, the cytotoxicity at 70.5 h is -2.79%.
Under `CN1CC(=O)N(c2ccccc2)CC12CCN(Cc1nccs1)C2` (stereo unspecified) stands 3.9%; under `CCc1nnc(N[C@H](C)c2cccc(OC)c2)o1`, -20.2%.
For the compound `CC(C(=O)N(Cc1ccc(C#N)cc1)CC(F)(F)F)S(C)(=O)=O` (stereo unspecified), the cytotoxicity at 70.5 h was -10.1%.
For `NC(=O)C1CCCN(C(=O)c2ccc(-n3ccnc3)cc2)C1` (stereo unspecified), the cytotoxicity at 70.5 h is -5.88%.
Take `CCOC1CCN(C(=O)NCc2ccc(CN3CCOCC3)cc2)CC1`: the cytotoxicity at 70.5 h was -9.89%.
Turning to `COCCN1C[C@@H]2CN(Cc3ccsc3)CCC[C@]2(C(=O)O)C1`, the cytotoxicity at 70.5 h is -12.1%.
Under `Cc1ccc(CCC(=O)N2CCCC(c3cc(C(N)=O)[nH]n3)C2)cc1` (stereo unspecified) stands 0.115%; under `CNC(=O)NC(=O)CSC(C)c1ccccc1F` (stereo unspecified), -15.4%.
As for `c1ccc(C(CC2CN(Cc3c[nH]cn3)CCO2)c2ccccc2)cc1` (stereo unspecified), the cytotoxicity at 70.5 h is -5.4%.
Consider `CC(NC(=O)N(C)C1CC1)c1ccc(Oc2cccnc2)c(F)c1` (stereo unspecified), for which the cytotoxicity at 70.5 h is -8.76%.
Turning to `CS(=O)(=O)N1C[C@@H]2OCC(=O)N(CC3CCC3)[C@@H]2C1`, the cytotoxicity at 70.5 h was -6.88%.
With `CN1C(=O)C[C@H]2[C@H]1CCN2Cc1cccc(C#N)c1`, the cytotoxicity at 70.5 h was -11.7%.
For the compound `Cc1ccc(C(=O)N(C)Cc2csc(C)n2)c(=O)[nH]1`, the cytotoxicity at 70.5 h came to 1.68%.
`CCc1c(C)sc2ncnc(N3CCN(C4CCOCC4)CC3)c12`: the cytotoxicity at 70.5 h was -11.1%.
As to `CCc1ccccc1NC(=O)N1CCn2cnc(COC)c2C1`, the cytotoxicity at 70.5 h is -7.61%.
With `Cc1oc(-c2nc(C#N)c(NC3CC3)o2)cc1S(=O)(=O)N1CCCC1`, the cytotoxicity at 70.5 h is -25.9%.
In the case of `CCc1nc2c(c(N(C)Cc3nncn3CCOC)n1)CCNCC2`, the cytotoxicity at 70.5 h was -8.26%.
Consider `Cc1ccc(N2CCCC(NCC(=O)NCC3CC3)C2)nn1` (stereo unspecified), for which the cytotoxicity at 70.5 h came to 1.19%.
As for `CN(C)C(=O)N1CCN(c2cc(N3CCCC3CO)ncn2)CC1` (stereo unspecified), the cytotoxicity at 70.5 h was -4.25%.
For `Cc1cccc(-c2nc(CN(Cc3cccs3)CC3CCCO3)no2)c1` (stereo unspecified), the cytotoxicity at 70.5 h was -1.72%.
Consider `COCCN1CCC(NC(=O)C(C)C)CC1`, for which the cytotoxicity at 70.5 h was -1.39%.
On to `CCc1ncc(C(=O)N2CCn3c(CC)nnc3C2)s1`, for which the cytotoxicity at 70.5 h was -13.9%.
Take `COc1ccccc1C(=O)Nc1c(F)c(C(=O)NCCC(C)C)nn1C`: the cytotoxicity at 70.5 h is 25.3%.

The record behind these values is ChEMBL document CHEMBL3507680, “University of Dundee, Gates Library screen for HepG2 cell viability”.
